Broadly, the IC50 is the concentration at which inhibition is half-maximal.

The source of these data is patent publication US20240269220A1, “USES OF BLETILLA FORMOSANA EXTRACT FOR THE TREATMENT OF DISEASES ASSOCIATED WITH DYSREGULATED ACTIVATION OF NEUTROPHILS” (Chang Gung University, priority 2022, published 2024).

Assay [1] relates to fMLF/CB-activated human neutrophils. Nature of the assay: Extracellular superoxide anion production (ferricytochrome c reduction) in fMLF/CB-activated human neutrophils. Format: cell-based. The settings on record: Neutrophil, chemical components of the extract, read-out: Superoxide anions IC50. Here is the method: (§1) The study was conducted with the approval of the Institutional Review Board of Chang Gung Memorial Hospital in accordance with the Declaration of Helsinki. After written informed consent was obtained, whole blood samples were drawn from healthy individuals aged 20-30 years who had not taken any medication within the previous 5 weeks. Neutrophils were then isolated using the standard procedures for dextran sedimentation, Ficoll-Hypaque gradient centrifugation, and hypotonic lysis of erythrocytes. The isolated neutrophils were then suspended in Ca^2+-free HBSS (pH 7.4) and stored at 4° C. until use.
Extracellular superoxide anion production in activated neutrophils was assessed through the reduction of ferricytochrome c. After incubating them with Ca^2+(1 mM) and ferricytochrome c (0.6 mg/mL) at 37° C., the isolated human neutrophils (6×10^5 cells/mL) were then incubated with DMSO or the present B. formosana extract for 5 min. The cells were pretreated with cytochalasin B (CB, 1 or 2 μg/mL) for 3 min and stimulated with fMLF. The change in absorbance at 550 nm was detected continuously using a spectrophotometer (U-3010, Hitachi, Tokyo, Japan), and superoxide anion levels were calculated using a method described previously (Hwang et al., 2003 Mol. Pharmacol. 64(6), 1419-1427).

The test system is the same in assay [2]. The assay is described as follows: Neutrophil elastase release in fMLF/CB-activated human neutrophils. The format is cell-based. The settings on record: chemical components of the extract. Here is the method:
as §1
Human neutrophils (6×10^5 cells/mL) were incubated with DMSO or the present B. formosana extract after treatment with 1 mM CaCl2 and 100 μM NE substrate (Methoxysuccinyl-Ala-Ala-Pro-Val-p-nitroanilide) at 37° C. for 5 min. Cells were stimulated with fMLF (0.1 μM)/cytochalasin B (CB) (0.5 μg/mL) for 10 min before determination of NE release by measuring the change of absorbance at 405 nm in a spectrophotometer.

`COc1cccc(CCc2cc(O)cc(OC)c2)c1` [BF8-4-2, 3′,5-dimethoxy-3-hydroxybibenzyl]: the results for the IC50 in assay [1] and in assay [2] were 4.63 ± 0.54 µM and over 10 µM, respectively.
As for `COc1cc(CCc2cccc(O)c2)cc(OC)c1` [BF8-4-3, 3,5-dimethoxy-3′-hydroxybibenzyl], the IC50 in assay [1] stood at 4.64 ± 0.23 µM; in assay [2], 7.41 ± 0.5 µM.
Regarding `COc1cc(O)cc(CCc2ccccc2)c1` [BF8-4-4, 3-hydroxy-5-methoxybibenzyl], the IC50 in assay [1] stood at 1.86 ± 0.21 µM; in assay [2], 2.71 ± 0.16 µM.
For `COc1cc(O)cc(CCc2cccc(O)c2)c1` [Batatasin III, 3,3′-dihydroxy-5-methoxybibenzyl], the IC50 in assay [1] was 4.3 ± 0.5 µM; in assay [2], over 10 µM.
`COc1cc(O)c(Cc2ccc(O)cc2)c2c1-c1ccc(O)cc1CC2` [Orchidble, 9,10-dihydro-1-[(4-hydroxyphenyl)methyl]-4-methoxy-2,7-phenanthrenediol]: the figures for the IC50 in assay [1] and in assay [2] were 0.66 ± 0.12 µM and 6.26 ± 1.19 µM, respectively.
